The text below walks through data of patent US10377781B2, “Alkylidene phosphonate esters as p-glycoprotein inducers” (Council of Scientific & Industrial Research, priority 2014, dated 2019).

As usually defined, the solubility is how much of the substance goes into solution per volume. The term EC50 denotes the concentration that produces a half-maximal response. For orientation: IC50 means the concentration that inhibits the measured activity by half.

≈ marks a conversion by molar mass, not a printed value. Entries after “also recorded” stand apart in the source; their conditions may differ. Read-outs that look alike come from different tables or passages of the source. Where only a bound is given, the exact number is not on record here.

Data set [1] can be described thus: Thermodynamic equilibrium solubility. The data set is classed as physicochemical. Particulars: for solubility: 25 °C, thermodynamic from solid. Here is the method:
The compounds were first dissolved in methanol to prepare stock solutions (100 and 1000 μg/mL). Different concentrations of stock solutions were pipetted into the 96-well plates and the solvent was evaporated to ensure that solid drug was present in the beginning of the experiment. […] The plates were kept overnight for equilibration of drug in medium. Later, the plates were centrifuged at 3000 rpm for 15 min (Jouan centrifuge BR4i). Supernatant (50 μl) was pipetted into UV 96-well plates (Corning® 96 Well Clear Flat Bottom UV-Transparent Microplate) for analyses with plate reader (SpectraMax Plus384) at λmax of 350 nm. The analyses were performed in triplicate for each compound. The solubility curve of concentration (ng/mL) vs absorbance was plotted to find out saturation point and the corresponding concentration was noted.

The target of the next data set is T1, rabbit PXR (Oryctolagus cuniculus, UniProt Q9TU02).
T1 sequence (Q9TU02 1-411): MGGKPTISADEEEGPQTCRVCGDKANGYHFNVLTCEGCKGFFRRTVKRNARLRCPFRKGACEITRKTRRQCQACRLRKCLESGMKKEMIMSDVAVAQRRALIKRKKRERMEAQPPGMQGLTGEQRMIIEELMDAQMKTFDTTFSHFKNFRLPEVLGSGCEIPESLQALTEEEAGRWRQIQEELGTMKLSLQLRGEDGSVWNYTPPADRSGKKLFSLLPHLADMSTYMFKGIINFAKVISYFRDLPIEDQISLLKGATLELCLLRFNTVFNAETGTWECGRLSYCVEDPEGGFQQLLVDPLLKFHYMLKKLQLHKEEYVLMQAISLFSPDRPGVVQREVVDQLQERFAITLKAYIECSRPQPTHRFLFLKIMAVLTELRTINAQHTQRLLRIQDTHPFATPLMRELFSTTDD
Particulars: read-out: EC50, activation of rabbit PXR; cited from earlier work.

Data set [2] has as its system P-glycoprotein (Pgp) in LS-180 cells. Briefly: Pgp-induction assay, rhodamine123 (Rh123) cell exclusion method. The data set is classed as cell-based. Particulars: for EC50: LS180 cells treated 48 h, Rh123 fluorescence vs concentration. The method, then: All synthesized compounds were screened for their ability to induce Pgp using rhodamine123 (Rh123) cell exclusion method. In this method, the Pgp function was evaluated in terms of rhodamine 123 (Rh123) accumulations and efflux. Briefly, the protocol used is as follows: Colorectal LS-180 cells [obtained from ECACC (European Collection of Cell Cultures) catalogue number: 87021202; passage number 52] were seeded at a density of 2×10^4 per well of 96 well plate and were allowed to grow for next 24 h. Cells were further incubated with the test compounds, and were diluted to a final concentration of 100 nM and rifampicin (standard) to a final concentration of 10 μM in complete media for 48 h. The final concentration of DMSO was kept at 0.1%. Drugs were removed and cells were incubated with HANKS buffer for 40 minutes before further incubation with HANKS buffer (containing 10 μM of Rh123 as a Pgp substrate) for 90 minutes. At the end of Rh123 treatment cells were washed four times with cold PBS followed by cell lysis for 1 h by using 200 μl of lysis buffer (0.1% Triton X-100 and 0.2 N NaOH). A total of 100 μl of lysate was used for reading fluorescence of Rh123 at 485 nm/529 nm. Samples were normalized by dividing fluorescence of each sample with total protein present in the lysate. For EC50 determination, different concentrations of compound were used to treat LS180 cells for 48 h. The EC50 value was determined by plotting fluoroscence of Rh123 against concentration of compound.

The test system of a further data set is CYP3A4. Particulars: rat hepatocytes; cited from earlier work.
The target in the next data set is T2, mouse PXR (Mus musculus, UniProt O54915).
T2 sequence (O54915 1-431): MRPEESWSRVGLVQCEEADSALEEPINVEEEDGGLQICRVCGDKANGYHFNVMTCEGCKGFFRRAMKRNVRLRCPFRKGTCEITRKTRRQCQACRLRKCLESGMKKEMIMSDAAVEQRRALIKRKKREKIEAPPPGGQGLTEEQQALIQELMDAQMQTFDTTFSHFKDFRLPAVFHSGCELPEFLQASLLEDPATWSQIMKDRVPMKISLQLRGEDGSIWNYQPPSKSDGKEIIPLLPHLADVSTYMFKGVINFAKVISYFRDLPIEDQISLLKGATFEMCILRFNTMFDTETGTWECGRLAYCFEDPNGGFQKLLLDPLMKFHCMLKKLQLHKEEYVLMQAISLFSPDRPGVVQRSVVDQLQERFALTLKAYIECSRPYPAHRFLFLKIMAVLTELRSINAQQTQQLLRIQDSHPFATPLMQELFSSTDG
Particulars: cited from earlier work.

The target of another data set is HMG-Co A reductase. Particulars: HepG2 (hepatocellular carcinoma) cells; read-out: IC50, reduction of HMG-Co A reductase activity; cited from earlier work.
In a further data set the target is T3, rat PXR (Rattus norvegicus, UniProt Q9R1A7).
T3 sequence (Q9R1A7 1-431): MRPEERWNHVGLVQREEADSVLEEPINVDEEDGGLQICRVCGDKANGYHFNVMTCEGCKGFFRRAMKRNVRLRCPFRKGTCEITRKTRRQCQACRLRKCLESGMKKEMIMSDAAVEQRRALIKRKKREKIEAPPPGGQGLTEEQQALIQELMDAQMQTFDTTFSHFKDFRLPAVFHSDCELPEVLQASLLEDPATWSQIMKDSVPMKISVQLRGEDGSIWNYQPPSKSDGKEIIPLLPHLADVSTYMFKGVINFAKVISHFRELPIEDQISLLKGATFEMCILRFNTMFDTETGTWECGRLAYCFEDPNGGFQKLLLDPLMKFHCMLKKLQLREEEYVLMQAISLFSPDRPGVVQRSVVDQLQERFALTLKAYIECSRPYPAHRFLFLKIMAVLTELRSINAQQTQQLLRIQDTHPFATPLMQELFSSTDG
Particulars: cited from earlier work.

In data set [3] the test system is p-glycoprotein expression in LS-180 cells. Nature of the data set: Western blot analysis of Pgp expression. The data set is classed as cell-based. The method, then:
Protein was measured employing Bio-Rad protein assay kit using bovine serum albumin as standard. Proteins aliquots (70 μg) were resolved on SDS-PAGE and then electro transferred to PVDF membrane overnight at 4° C. at 30V. Nonspecific binding was blocked by incubation with 5% non-fat milk in Tris-buffered saline containing 0.1% Tween-20 (TBST) for 1 h at room temperature. The blots were probed with anti-Pgp antibody for 4 h and washed three times with TBST. Blot was then incubated with horseradish peroxidase conjugated antimouse secondary antibody for 1 h, washed again three times with TBST and signals detected using ECL plus chemiluminescence's kit on BioRad ChemiDoc XRS system.
In general terms: Immunoblotting shows a protein as a band on a membrane.

As for `CCOP(=O)(OCC)C(=Cc1cc(C(C)(C)C)c(O)c(C(C)(C)C)c1)P(=O)(OCC)OCC` [Compound 1a], the solubility is 200 µg/mL (≈ 396 µM) in data set [1] (water, 25±1° C., read-out: Solubility, Water); 200 µg/mL (≈ 396 µM) in data set [1] (phosphate buffer saline (PBS), aqueous buffer, read-out: Solubility, PBS); 200 µg/mL (≈ 396 µM) in data set [1] (simulated gastric fluid (SGF), simulated gastric fluid, read-out: Solubility, SGF); 200 µg/mL (≈ 396 µM) in data set [1] (simulated intestinal fluid (SIF), fassgf or other biorelevant, read-out: Solubility, SIF). Also, the values for the EC50 (at rabbit PXR; in data set [2]) were about 0.7 µM and 0.00204 µM, respectively. Besides, in the data set on CYP3A4, the CYP3A4 protein levels result is on record as “increase CYP3A4 protein levels”. The “activation of mouse PXR” value at mouse PXR is reported as “very weak activator”. Further, the IC50 at HMG-Co A reductase is 0.85 µM. Moreover, at rat PXR, the “activation of rat PXR” value is recorded as “very weak activator”.
`CCOP(=O)(OCC)C(=Cc1c2ccccc2cc2ccccc12)P(=O)(OCC)OCC` [Compound 1l, Tetraethyl 2-(anthracene-10-yl) ethene-1,1-diyldiphosphonate]: in data set [1] (phosphate buffer saline (PBS)), the “Solubility, PBS” value is over 1500 µg/mL. The “Solubility, SGF” value in data set [1] (simulated gastric fluid (SGF)) is over 1500 µg/mL. In data set [1] (simulated intestinal fluid (SIF)), the “Solubility, SIF” value was over 1500 µg/mL. In addition, the solubility in words entry in data set [1] (water and biological fluids) is listed as “optimal solubility”. Moreover, the “Solubility, Water” value in data set [1] (water, 25±1° C.) came to 400 µg/mL (≈ 840 µM). The molecule also gave an EC50 in data set [2] of 0.0009 µM. Moreover, the “Pgp induction as decrease in % intracellular levels of rhodamine 123” value in data set [2] (LS-180 cells, test compounds 100 nM, 48 h) is on record as “decreased; also recorded: promising induction of p-glycoprotein”. Also, the “fold difference of EC50 versus SR12813 (1a)” value in data set [2] (Pgp induction EC50, LS180 cells) amounted to 2 fold. Moreover, the “p-glycoprotein expression (Western blot)” value in data set [3] was “induces p-glycoprotein expression”.
